Reference: US20180200233A1, “COMPOSITIONS FOR PREVENTING CANCERS ASSOCIATED WITH HUMAN PAPILLOMA VIRUSES” (Loma Linda University, priority 2015, published 2018)

Legend:
p53 level in C33A cells = experiment: p53 ELISA in C33A cells; type: cell-based, human; conditions: 200 μM myricetin, 100 μM spinacine; with mitomycin C, 24 h
Experimental: (§1) FIGS. 6A-B is an immunoblot and FIG. 6B is a graph showing that treatment with myricetin and spinacine (5) increased cellular levels of caspase 8 and p53. (FIG. 6A) SiHa cells (1×10^6 per well) were seeded into a 6-well plate and allowed to incubate overnight. The indicated concentrations of myricetin and spinacine were added, then cells were incubated for 24 h. Cells were then washed in 1×PBS, then harvested and the resulting level of caspase 8 was measured by immunoblot. (FIG. 6B) SiHa and C33A cells (1×10^6 per well) were seeded into a 6-well plate and allowed to incubate overnight. 200 μM of myricetin and 100 μM spinacine were added together with 4 μg/ml mitomycin C and incubated for 24 h. The resulting level of p53 was measured by ELISA, and the level of p53 found in untreated cells was set at 100%. Experiments were performed in triplicate, and error bars indicate the standard deviation.
If this ability is due to inhibition of E6 functions, then an increase in the levels of caspase 8 and p53 should be observable in SiHa cells following treatment with myricetin and spinacine. To test this prediction, SiHa cells were treated with 50, 100, and 200 μM of myricetin or spinacine for 24 hr, and then measured the level of caspase 8 by immunoblot. […] To ask how p53 levels were affected, an ELISA assay was employed. […]

[1] = system: caspase 8 level in SiHa cells; experiment: Immunoblot of caspase 8 level in SiHa cells; type: cell-based, human; conditions: 50, 100 and 200 μM for 24 hr
Experimental: as §1, with “Experiments were performed in triplicate, and error bars indicate the standard deviation.” left out
If this ability is due to inhibition of E6 functions, then an increase in the levels of caspase 8 and p53 should be observable in SiHa cells following treatment with myricetin and spinacine. To test this prediction, SiHa cells were treated with 50, 100, and 200 μM of myricetin or spinacine for 24 hr, and then measured the level of caspase 8 by immunoblot. […]
Cells (1×10^6) were collected and washed with PBS. […] Signals were measured using the Odyssey Infrared Imaging system (LI-COR Biosciences) and expressed in relative light units.

SMILES | change in p53 levels in C33A cells (in words) (p53 level in C33A cells) | caspase 8 levels in SiHa cells (in words) [1]
O=C(O)C1Cc2[nH]cnc2CN1 (stereo not shown) [Compound 5, 4,5,6,7-Tetrahydro-1H-imidazo(4,5-c)pyridine-6-carboxylic acid] | no significant change | increase in caspase 8 at doses from 50 to 200 μM
O=c1c(O)c(-c2cc(O)c(O)c(O)c2)oc2cc(O)cc(O)c12 [Myricetin, reference compound] | no significant change | increase in caspase 8 levels at doses of 100 μM and 200 μM
